From patent US7332476B2, “Pyridyl substituted ketolide antibiotics” (Novartis AG, priority 2003, dated 2008)
In brackets after ≈: the same amount, converted by molar mass.

Legend:
Experiment in all cases: MIC, broth microdilution (NCCLS)
[1] = system: Haemophilus influenzae Hain_960820544-3; format: cell-based; settings: strain ID J; broth microdilution; in µg/mL (unit assumed)
Summary of the method: (§1)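 MIC read visually as lowest drug concentration with no growth after 18-24 h at 35° C; ambient air for staphylococci and enterococci, 5-10% CO2 for H. influenzae. Inoculum 3×10^5–7×10^5 CFU/ml; CAMHB or Haemophilus Test Medium.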

[2] = system: Haemophilus influenzae Hain_2762; format: cell-based; settings: strain ID L; broth microdilution; in µg/mL (unit assumed)
Summary of the method: as §1

[3] = system: Haemophilus influenzae Hain_960730503-3; format: cell-based; settings: strain ID I; broth microdilution; in µg/mL (unit assumed)
Summary of the method: as §1

[4] = system: Enterococcus faecalis Enfa_bc 11148-2; format: cell-based; settings: strain ID F; broth microdilution; in µg/mL (unit assumed)
Summary of the method: as §1

[5] = system: Haemophilus influenzae Hain_953460299-3; format: cell-based; settings: strain ID K; broth microdilution; in µg/mL (unit assumed)
Summary of the method: as §1

[6] = system: Staphylococcus aureus Stau_33591; format: cell-based; settings: strain ID B; broth microdilution; unit assumed
Summary of the method: as §1

[7] = system: Streptococcus pneumoniae Stpn_Erm S 4297; format: cell-based; settings: strain ID Q, broth microdilution
Summary of the method: (§2)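 NCCLS broth microdilution with 2-fold serial drug dilutions (methanol stocks diluted in water); inoculum 3×10^5–7×10^5 CFU/ml in CAMHB, with 2-5% lysed horse blood for S. pneumoniae. Incubation 18-24 h at 35° C., ambient air, except S. pneumoniae (5-10% CO2). MIC is lowest concentration preventing visible growth.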

[8] = system: Haemophilus influenzae Hain_49247; format: cell-based; settings: strain ID H; broth microdilution; unit assumed
[9] = system: Staphylococcus aureus Stau_29213; format: cell-based; settings: strain ID A; broth microdilution; in µg/mL (unit assumed)
Summary of the method: as §2

[10] = system: Enterococcus faecalis Enfa_29212; format: cell-based; settings: strain ID E, broth microdilution
Summary of the method: as §2

[11] = system: Staphylococcus epidermidis Step_14990; format: cell-based; settings: strain ID C; broth microdilution; in µg/mL (unit assumed)
Summary of the method: as §2

[12] = system: Staphylococcus epidermidis Step_f50654; format: cell-based; settings: strain ID D; broth microdilution; in µg/mL (unit assumed)
Summary of the method: as §2

[13] = system: Streptococcus pyogenes Stpy_8668; format: cell-based; design: MIC, strain ID G: unit not given beside the values; settings: strain ID G; broth microdilution
Summary of the method: as §2

[14] = system: S. pneumoniae Stpn_Erm 6849; format: cell-based, Streptococcus pneumoniae; settings: strain ID P; broth microdilution; in µg/mL (unit assumed)
Summary of the method: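 S. pneumoniae MIC by NCCLS broth microdilution in cation-adjusted Mueller-Hinton broth with 2-5% lysed horse blood, inoculum 3×10^5–7×10^5 CFU/ml, 2-fold drug dilutions. Incubated 18-24 hours at 35° C. in 5-10% CO2; MIC is lowest concentration preventing visible growth.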

[15] = system: Streptococcus pneumoniae Stpn_49619; format: cell-based; design: MIC, strain ID M: unit not given beside the values; settings: strain ID M; broth microdilution
Summary of the method: as §2

[16] = system: Streptococcus pneumoniae Stpn_280-962; format: cell-based; design: MIC, strain ID O: unit not given beside the values; settings: strain ID O; broth microdilution
Summary of the method: as §2

[17] = system: Streptococcus pneumoniae Stpn_297-749; format: cell-based; design: MIC, strain ID N: unit not given here; settings: strain ID N; broth microdilution
Summary of the method: as §2

## CC[C@H]1OC(=O)[C@H](C)C(=O)[C@H](C)[C@@H](OC2O[C@H](C)C[C@H](N(C)C)[C@H]2O)[C@@](C)(OC)C[C@@H](C)C(=O)[C@H](C)[C@@H]2[C@@H]1OC(=O)N2CCCCn1cnc(-c2ccc(Cl)nc2)c1 (some centres unmarked) [XXVIII]
[1]
  MIC, strain ID J: 6.25
[2]
  MIC, strain ID L: 1.56
[3]
  MIC, strain ID I: 6.25
[4]
  MIC, strain ID F: 0.4
[5]
  MIC, strain ID K: 12.5
[6]
  MIC, strain ID B: > 50 µg/mL
[7]; in µg/mL (unit assumed)
  MIC, strain ID Q: 0.1
[8]
  MIC, strain ID H: 6.25 µg/mL (≈ 7.51 µM)
[9]
  MIC, strain ID A: 0.2
[10]
  MIC, strain ID E: =0.05
[11]
  MIC, strain ID C: 0.1
[12]
  MIC, strain ID D: 0.2
[13]
  MIC, strain ID G: =0.05
[14]
  MIC, strain ID P: 0.78
[15]
  MIC, strain ID M: =0.05
[16]
  MIC, strain ID O: =0.05
[17]
  MIC, strain ID N: =0.05

## C#C[C@]12OC(=O)N(CCCCn3cnc(-c4ccc(Cl)nc4)c3)[C@@H]1[C@@H](C)C(=O)[C@H](C)C[C@](C)(OC)[C@H](OC1O[C@H](C)C[C@H](N(C)C)[C@H]1O)[C@@H](C)C(=O)[C@@H](C)C(=O)O[C@@H]2CC (some centres unmarked) [XXXIV]
[1]
  MIC, strain ID J: 6.25
[2]
  MIC, strain ID L: 0.78
[3]
  MIC, strain ID I: 6.25
[4]
  MIC, strain ID F: 0.4
[5]
  MIC, strain ID K: 6.25
[6]
  MIC, strain ID B: > 50 µg/mL
[7]; in µg/mL (unit assumed)
  MIC, strain ID Q: 0.1
[8]
  MIC, strain ID H: 3.13 µg/mL (≈ 3.65 µM)
[9]
  MIC, strain ID A: 0.1
[10]
  MIC, strain ID E: =0.05
[11]
  MIC, strain ID C: 0.1
[12]
  MIC, strain ID D: 0.1
[13]
  MIC, strain ID G: =0.05
[14]
  MIC, strain ID P: 0.4
[15]
  MIC, strain ID M: =0.05
[16]
  MIC, strain ID O: =0.05
[17]
  MIC, strain ID N: =0.05

## C=C[C@]12OC(=O)N(CCCCn3cc(-c4ccc(Cl)nc4)nc3C)[C@@H]1[C@@H](C)C(=O)[C@H](C)C[C@](C)(OC)[C@H](OC1O[C@H](C)C[C@H](N(C)C)[C@H]1O)[C@@H](C)C(=O)[C@@H](C)C(=O)O[C@@H]2CC (some centres unmarked) [XXIX]
[1]
  MIC, strain ID J: 6.25
[2]
  MIC, strain ID L: 1.56
[3]
  MIC, strain ID I: 6.25
[4]
  MIC, strain ID F: 3.13
[5]
  MIC, strain ID K: 12.5
[6]
  MIC, strain ID B: > 50 µg/mL
[7]
  MIC, strain ID Q: =0.05
[8]
  MIC, strain ID H: 6.25 µg/mL (≈ 7.16 µM)
[9]
  MIC, strain ID A: 0.2
[10]; in µg/mL (unit assumed)
  MIC, strain ID E: 0.1
[11]
  MIC, strain ID C: 0.1
[12]
  MIC, strain ID D: 0.2
[13]
  MIC, strain ID G: =0.05
[14]
  MIC, strain ID P: 0.78
[15]
  MIC, strain ID M: =0.05
[16]
  MIC, strain ID O: =0.05
[17]
  MIC, strain ID N: =0.05

## C=C[C@]12OC(=O)N(CCCCn3cnc(-c4cnc(Cl)c(C)c4)c3)[C@@H]1[C@@H](C)C(=O)[C@H](C)C[C@](C)(OC)[C@H](OC1O[C@H](C)C[C@H](N(C)C)[C@H]1O)[C@@H](C)C(=O)[C@@H](C)C(=O)O[C@@H]2CC (some centres unmarked) [XXXVIII]
[1]
  MIC, strain ID J: 12.5
[2]
  MIC, strain ID L: 1.56
[3]
  MIC, strain ID I: 6.25
[4]
  MIC, strain ID F: 3.13
[5]
  MIC, strain ID K: 12.5
[6]
  MIC, strain ID B: > 50 µg/mL
[7]; in µg/mL (unit assumed)
  MIC, strain ID Q: 0.2
[8]
  MIC, strain ID H: 3.13 µg/mL (≈ 3.59 µM)
[9]
  MIC, strain ID A: 0.1
[10]; in µg/mL (unit assumed)
  MIC, strain ID E: 0.1
[11]
  MIC, strain ID C: 0.1
[12]
  MIC, strain ID D: 0.4
[13]
  MIC, strain ID G: =0.05
[14]
  MIC, strain ID P: 0.2
[15]
  MIC, strain ID M: =0.05
[16]
  MIC, strain ID O: =0.05
[17]
  MIC, strain ID N: =0.05
